Measurements taken from patent US20200276164A1, “PHARMACEUTICAL COMBINATIONS FOR THE TREATMENT OF CANCER” (The Queen's University of Belfast, priority 2017, published 2020).

Columns and labels:
[1] = test system: endothelial cell tubule formation; experiment: In vitro angiogenesis (V2A vascular tubule formation) assay; format: cell-based; settings: 10 days; for stimulation of endothelial cell tubule formation: VEGF 2 ng/ml or rh-IL-8 3 nM
Protocol: The V2A angiogenesis assay (#ZHA-4000, Cellworks, UK) was carried out according to the manufacturer's instruction. Cells were allowed to settle for 4 days prior to treatment. Treatments were carried out in duplicate and were replenished every 2 days for 10 days. For treatments involving conditioned media, PC3 or LNCaP cells were treated as required for 24 h, media harvested and stored at −20° C. Vessels were visualized at 4× magnification. Vessel density was measured in four fields per well using AngioSys 2.0 software (Cellworks, UK).

PC3 cells [2] = experiment: Chick embryo experimental metastasis model (CAM assay), PC3 colonization; format: in vivo; settings: over five days; 0.1 mL of 20 μM solution i.v. per embryo on days 1 and 2
Protocol: Experimental metastasis assays were performed in chick embryos as described (Deryugina et al., Histochem Cell Biol 2008; 130: 1119-30). On day 12 of incubation, PC3 cells were injected directly into the blood circulation through an allantoic vein (1×10^5 cells in 0.1 mL serum-free medium per embryo). MDV3100 was delivered i.v. on days 1 and 2 after cell inoculations (0.1 mL of a 20 μM solution per embryo). On day 5, portions of the CAM were harvested to quantify the number of human tumour cells by human-specific Alu-qPCR as previously described (Deryugina et al., Cancer Res 2005; 65: 10959-69), using a standard curve generated by serial dilutions of human tumour cells within a constant number (1×10^6) of chick embryo fibroblasts.

LNCaP cells [3] = experiment: PARP immunoblot in LNCaP cells; format: cell-based, human; settings: 10 μM, 72 h
Protocol: (§1) Immunoblotting was performed as previously described (McCourt et al., Clin Cancer Res 2012; 18:3822-33). Antibodies were obtained as follows: AR, Millipore (#PG-21, UK); AR-V7 (#ab198394) & PARP (#14-6667-82), Abcam (UK); Bcl-2 (#4223), Cell Signalling Technology (The Netherlands); c-FLIP (#AG-20B-0056), Adipogen (Switzerland); RELA(p65) (#sc-372), Santa Cruz (CA, USA); GAPDH (#MCA4740), Biorad (UK).

LNCaP xenograft = LNCaP xenograft study, tumour growth
Protocol: MDV3100 (in 0.1% DMSO in corn oil) was administered orally (p.o). Vehicle control (VC) or MDV3100 (4 mg/kg, equivalent to 100 mg/day in men) was administered daily. Human IL-8 and VEGF nAbs were administered 3×/week via intraperitoneal (i.p.) injection, at a final concentration of 50 μg/ml and 100 μg/ml, respectively. IgG control was at a final concentration of 150 μg/ml.
LNCaP cells (1×10^7 in Matrigel) were implanted on the rear dorsum of 8-10-week-old male Balb/c SCID mice. When tumour volume was 150-200 mm^3, mice were randomly assigned to treatment groups (3-5 per group). […] Mice were sacrificed at day 28 or day 35. Tumour growth over 28 days (% T/C) was calculated using the equation: % T/C=(mean tumour volume on day 28−mean starting volume)/(mean control tumour volume on day 28−mean control starting volume)×100.
Tumours were measured 3×/week using digital calipers. The length and width of the tumour was measured and the volume calculated using the formula volume=(length×width 2)/2. *, numbers in brackets show % T/C compared to enzalutamide alone at day 28; **, control is enzalutamide alone.

PC3 cells [4] = experiment: PC3 cell viability assay; format: cell-based, human; settings: increasing concentrations, 72 h, relative to DMSO vehicle control
Protocol: (§2) Cell viability was assessed by 3-(4,5-dimethylthiazol-2-yl)-2,5-diphenyltetrazolium bromide (MTT) assay as previously described (Maxwell et al., Oncogene 2007; 26: 7333-45).

HUVEC cells = experiment: HUVEC apoptosis (Annexin V/PI staining); format: cell-based, human; settings: 10 μM, 72 h
Protocol: FIG. 1 illustrates that MDV3100 treatment directly affects tumour vasculature. (A) Graph illustrating measured intra-tumoural oxygenation levels in growing MDV3100-treated LNCaP tumours, in the absence and presence of anti-IL-8 nAb (50 μg/ml) and/or anti-VEGF nAb (100 μg/ml). Values shown are mean (±SD). (B) Bar graph presenting time-dependent changes in tumour vessel density over time in MDV3100-treated LNCaP tumours, in the absence or presence of anti-IL-8 nAb (50 μg/ml) and/or anti-VEGF nAb (100 μg/ml). Stereological methods were used to analyze change in vessel density over time in all treatment groups and values were used to calculate percentage area covered by vessels. […] Data shown are the mean (±SEM) of four individual experiments. […] Viability was determined by MTT assay. […] Apoptosis was assessed by Annexin V/PI staining. […] The number of junctions was measured using AngioSys 2.0 software. […] For all data, statistically significant differences were determined using a Student's two-tailed t-test or Mann-Whitney U test:* p<0.05, ** p<0.01, *** p<0.001.
To further understand the events contributing to MDV3100-promoted hypoxia, we studied the direct effect of MDV3100 administration upon vascular endothelial cells using two independent i assays. In agreement with previous studies, we detected AR mRNA in HUVEC endothelial cells by qPCR analysis (FIG. 1C, top panel). […]

LNCaP tumours = experiment: Tumour oxygenation measurement in LNCaP xenograft model; format: in vivo, Balb/c SCID mice; settings: MDV3100 4 mg/kg p.o. daily, nAbs i.p. 3x/week (anti-IL-8 50 μg/ml, anti-VEGF 100 μg/ml), over 28 days
Protocol: Tumour oxygenation was measured once weekly as previously described (Ming et al., Int J Cancer 2013; 132:1323-32).

LNCaP cells [5] = experiment: LNCaP cell viability (MTT assay), normoxia or hypoxia; format: cell-based, human; settings: 10 μM, 72 h
Protocol: (§3) Authenticated PC3 (ATCC CRL-1435), LNCaP (ATCC CRL-1740) and 22Rv1 (ATCC CRL-2505) cells were cultured as described in Seaton et al. (Carcinogenesis 2008; 29: 1148-56). C4-2B cells were maintained in RPMI 1640 supplemented with 10% fetal calf serum (FCS). MDV3100-sensitive (LNCaP-Par) and resistant (LNCaP-EnzR) cells were obtained from Prof. Vander Griend, University of Chicago, Chicago, Ill., and were cultured as described in Kregel et al. (Oncotarget 2016; 7: 26259-74). HUVEC (ATCC CRL-1730) cells were maintained in Endothelial Cell Growth Medium (#CC-3162, Lonza, UK). For experiments involving hypoxia (0.1% 02), cells were cultured as previously reported (Maxwell et al., Oncogene 2007; 26: 7333-45). Human IL-8 monoclonal antibody (#MAB208), human VEGF mAb (#AB293NA) and isotype-matched IgG (#MAB002) were obtained from R&D Systems (UK). MDV3100 (#S1250) was obtained from Selleckchem (Germany). Cells were regularly tested to ensure they were free of mycoplasma contamination.
as §2

LNCaP tumour vasculature = experiment: Dorsal skin flap model, tumour vessel coverage; format: in vivo, Balb/c SCID mice
Protocol: A viewing chamber was attached to a raised skin flap on the dorsal surface of the mouse (Balb/c SCID) and a fragment (˜0.5 mm) of LNCaP tumour was placed on the microvascular as previously described (9). Tumour vasculature was imaged weekly/4 weeks using a stereomicroscope. Image analysis was carried out using Touptek software (Touptek Photonics, China).

LNCaP-EnzR cells [6] = experiment: Immunoblot of PARP, AR, c-FLIP and Bcl-2 in LNCaP-EnzR cells; format: cell-based, human; settings: MDV3100 10 μM, 72 h
Protocol: as §1

C4-2B cells = experiment: C4-2B cell viability assay; format: cell-based; settings: 72 h
Protocol: as §3, §2

LNCaP-EnzR cells [7] = experiment: LNCaP-EnzR (MDV3100-resistant) cell viability assay; format: cell-based, human; settings: MDV3100 10 μM, relative to DMSO control
Protocol: as §3, §2

hypoxic LNCaP cells [8] = experiment: ELISA of secreted VEGF and IL-8 from hypoxic LNCaP cells; format: cell-based, human; settings: MDV3100 10 μM, relative to DMSO
Protocol: as §3
Secreted IL-8 (#M1918, Pelikine, Mast Group, UK), and VEGF (#DY293B, R&D Systems, UK) were measured by ELISA as per manufacturer's instructions.

hypoxic LNCaP cells [9] = experiment: qPCR of hypoxia-induced gene expression in LNCaP cells; format: cell-based, human; settings: MDV3100 10 μM
Protocol: as §3
Nucleic acid samples were prepared and analyzed as previously described (Maxwell et al., Oncogene 2007; 26: 7333-45; Maxwell et al., Eur Urol 2013; 64: 177-88). Primer sequences were as follows: AR: Forward, 5′-[…]-3′ (SEQ ID NO: 1); Reverse, 5′-[…]-3′ (SEQ ID NO: 2); PSA/KLK3: Forward, 5′-[…]-3′ (SEQ ID NO: 3); Reverse, 5′-TTGCGCACACACGTCATT-3′ (SEQ ID NO: 4). Primer sequences for 18s, BCL2, CAIX, IL-8, and VEGF have been previously reported (Maxwell et al., Oncogene 2007; 26: 7333-45; Lekas et al., Urol Res 1997; 25: 309-14).

[10] = HUVEC cell viability (MTT assay); format: cell-based; settings: human, HUVEC cells, read-out: reduction of viability of HUVEC cells
Protocol: as §2

VEGF
stimulation of endothelial cell tubule formation [1]: directly stimulated endothelial cell tubule formation

CNC(=O)c1ccc(N2C(=S)N(c3ccc(C#N)c(C(F)(F)F)c3)C(=O)C2(C)C)cc1F [MDV3100, Enzalutamide]
PC3 colonization in the CAM assay (PC3 cells [2]): significantly enhanced PC3 colonization | full-length PARP protein (immunoblot) (LNCaP cells [3]; hypoxic LNCaP cells): stabilization of PARP | full-length PARP protein (immunoblot) (LNCaP cells [3]; normoxic LNCaP cells): loss of full-length PARP protein | Tumour volume at day 28 (mm^3) (±SD) (LNCaP xenograft; day 28, MDV3100 4 mg/kg p.o. daily, antibodies i.p. 3x/week): 423 (±90) mm^3 | reduction in tumour volume / tumour growth (LNCaP xenograft; treatment-day 28, over 28 days): 59.5% | % T/C (LNCaP xenograft; tumour growth over 28 days versus vehicle control): 39.0% | viability of PC3 cells (PC3 cells [4]): unresponsive | induction of apoptosis in HUVEC cells (HUVEC cells; hypoxia): significantly enhanced | induction of apoptosis in HUVEC cells (HUVEC cells; normoxic culture conditions): minimal | intra-tumoural oxygen levels (LNCaP tumours): rapid, profound drop in tumour oxygen levels over the initial 14 days | viability of LNCaP cells (LNCaP cells [5]; hypoxic conditions): ineffective | viability of LNCaP cells (LNCaP cells [5]; normoxia, relative to DMSO control): reduced the viability | vessel coverage (percentage area covered by tumour vessels) (LNCaP tumour vasculature; 14 days): 5.2±2.2% | vessel coverage (percentage area covered by tumour vessels) (LNCaP tumour vasculature; after 7 days of treatment): 8.2±2.3% | vessel coverage (percentage area covered by tumour vessels) (LNCaP tumour vasculature; day 21): 10.3±3.1% | vessel coverage (percentage area covered by tumour vessels) (LNCaP tumour vasculature; day 28): 14.7±2.6% | expression of full-length PARP (immunoblot) (LNCaP-EnzR cells [6]): clearly increased | sensitivity of C4-2B cells (viability) (C4-2B cells; hypoxia, 10 μM): reduced sensitivity | sensitivity of C4-2B cells (viability) (C4-2B cells; normoxic culture conditions): intermediate sensitivity | viability of LNCaP-EnzR cells (LNCaP-EnzR cells [7]): no effect | tubule formation with conditioned medium from MDV3100-treated PC3 cells ([1]; CM of PC3 cells cultured with MDV3100 10 μM): no detrimental effect on tubule formation | development of branching junctions (vascular tubule formation) ([1]; MDV3100 10 μM): significantly impaired the development of branching junctions | hypoxia-induced secretion of VEGF and IL-8 (ELISA) (hypoxic LNCaP cells [8]): failed to attenuate | hypoxia-induced up-regulation of BCL2 (qPCR) (hypoxic LNCaP cells [9]): failed to reverse | hypoxia-induced up-regulation of CAIX (qPCR) (hypoxic LNCaP cells [9]): failed to reverse | hypoxia-induced expression of VEGF and IL-8 (qPCR) (hypoxic LNCaP cells [9]; relative to DMSO): failed to attenuate | cytotoxicity at 72 h, 10 μM ([10]; 10 μM): 10% | cytotoxicity at 72 h, 50 μM ([10]; 50 μM): 17%

rh-IL-8: exogenous rh-IL-8 (3 nM) added in the tubule formation assay
stimulation of endothelial cell tubule formation [1]: less potent in stimulating tubule formation
